Measurements from US20250041277A1, “METHODS AND DOSING REGIMENS COMPRISING A CDK2 INHIBITOR AND A CDK4 INHIBITOR FOR TREATING CANCER” (PFIZER INC., priority 2021, published 2025).
Several values for one entry are separate records, joined by “and”; a condition that tells them apart may be missing. Equal values may be shown once.

Experiments:
[1] = system: T47D breast cancer cell line; assay: Cell proliferation combination assay (Loewe Volume, CI), T47D; format: cell-based, Human; conditions: T-47D cells; for Best CI: Best CI Level 70
Protocol: The combination effects of PF-07104091 and PF-07220060 were evaluated in a cell proliferation assay with MCF7 and T47D BC cell lines.
Drug combinations were analyzed using the Dose Equivalence Principle, and the Loewe Volume score. When modeling synergy using the Dose Equivalence Principle, the Loewe Volume score for the combination compounds should be greater than the compound self-cross controls, and the Combination Index (C) score for the combination compounds should be less than compound self-cross controls. […] The isobolograms set to an anti-proliferation threshold at 70% confirmed a synergistic response.

[2] = system: HCC1428 breast cancer model; assay: In vivo efficacy, HR+/HER2− HCC1428 breast cancer model (Example 3); parameters: species or system NSG mice; conditions: HCC1428, Day 42; PO BID: PF-07104091 150 mpk, PF-07220060 60 mpk, palbociclib 10 mpk
Protocol: (§1) Female NSG mice (Jackson Lab) were subcutaneously implanted with fragment (27 mm^3 to 64 mm^3 size) into the dorsal region. All mice for T47D, HCC1428 and ST941 PBR studies were supplemented with 8.5 μg/mL estradiol water (β-Estradiol Sigma-Aldrich, cat #E2758-5G) and gave ad libitum till end of study. For the in vivo efficacy studies, tumor volume and body weights were measured twice a week. Tumor volume was calculated using the [(Length×Width×Width)/2)] formula. TGI was calculated as 100*(1−ΔT/ΔC). The ΔC (ΔT) was obtained by subtracting the mean tumor burden in the vehicle (treated) group on the first day of treatment (Day 0) from the mean tumor burden in vehicle (treated) group on the assessment day. Statistical analysis was performed using ANCOVA when the mean tumor volume in vehicle treated mice reached tumor cutoff size.
The HCC1428 model was established by implanting passage 4 tumor fragments into recipient mice. To establish the HCC1428 donor mice, tumor cells (5×10^6 cell/mouse with 50% Cultrex® Basement Membrane Matrix) were subcutaneously implanted in female NSG mice. Once reaching a range of 700 to 800 mm^3, donor tumors were subsequently transplanted into secondary recipient mice for a study expansion. […] PF-07104091 (lot 016), PF-07220060 (lot 019) and PD-0332991 (lot GR08498) were administered (PO.) BID (7 hr apart). All mice received treatment continuously until Day 42. TGI was assessed on Day 42 post first dose.

ST941 PBR PDX model = assay: In vivo efficacy, palbociclib-resistant ST941 PBR PDX model (Example 3); parameters: species or system NSG mice; conditions: ST941PBR, Day 28; PO BID: PF-07104091 150 mpk, PF-07220060 60 mpk, palbociclib 10 mpk; fulvestrant 10 mpk SC 2x week 1 then weekly
Protocol: as §1
We established model in house by continuous treatment of the ST941 PBR tumor bearing mice with PD-0332991 at 50 mg/kg, PO QD plus fulvestrant at 10 mg/kg, SC twice in the first week, then weekly thereafter. To propagate donors for the TGI study, tumors were transplanted to recipient mice. One week after the re-implantation, the recipient mice received continuous treatment with palbociclib plus fulvestrant (dosing schedule described above). After 1 to 2 serial in vivo propagation with the same treatment regimen, the resistant tumors in the range of 700 to 800 mm^3 were re-implanted for a study expansion. The remaining tumor fragments were viably frozen for future use.
The live donor mice were established by implanting ST941 PBR (p11) tumor fragments. Once reaching a range of 700 to 800 mm^3, the donor tumors were subsequently transplanted into secondary recipient mice for a study expansion. To maintain the resistant clones, the ST941 PBR tumor bearing mice were treated with PD-0332991 at 50 mg/kg, PO. QD plus fulvestrant at 10 mg/kg, SC twice in the first week, then weekly afterwards for 10 weeks. The treatment was initiated one week after the implant until day of randomization for study enrollment. […] TGI was assessed on Day 28 post first dose.

NCI-2291 = assay: Combinatorial activity in LUAD cell line NCI-2291; format: cell-based; conditions: NCI-2291, KRAS G12C/F/V; single agent; read-out: (nM) s.a.
Protocol: (§2) Combinatorial activity of PF-07104091 and PF-07220060 was assessed in LUADs as single agents (s.a.) or in combination.

A427 = assay: Combinatorial activity in LUAD cell line A427; format: cell-based; conditions: Homo sapiens, A-427; A427, KRAS G12D; single agent; read-out: (nM) s.a.
Protocol: as §2

A549 = assay: Combinatorial activity in LUAD cell line A549; format: cell-based; conditions: Homo sapiens; A549, WT; single agent; read-out: (nM) s.a.
Protocol: as §2

CALU6 = assay: Combinatorial activity in LUAD cell line CALU6; format: cell-based; conditions: Homo sapiens, Calu-6; CALU6, WT; single agent; read-out: (nM) s.a.
Protocol: as §2

NCIH2023 = assay: Combinatorial activity in LUAD cell line NCIH2023; format: cell-based; conditions: NCI-H2023; NCIH2023, WT; single agent; read-out: (nM) s.a.
Protocol: as §2

NCIH2126 = assay: Combinatorial activity in LUAD cell line NCIH2126; format: cell-based; conditions: Homo sapiens, NCI-H2126; NCIH2126, WT; single agent; read-out: (nM) s.a.
Protocol: as §2

NCIH2228 (RB mut) = assay: Combinatorial activity in LUAD cell line NCIH2228; format: cell-based; conditions: Homo sapiens, NCI-H2228, WT, single agent, read-out: (nM) s.a.
Protocol: as §2

H23 = assay: Combinatorial activity in LUAD cell line H23; format: cell-based; conditions: Homo sapiens, NCI-H23; H23, KRAS G12C; single agent; read-out: (nM) s.a.
Protocol: as §2

H358 = assay: Combinatorial activity in LUAD cell line H358; format: cell-based; conditions: Homo sapiens, NCI-H358; H358, KRAS G12C; single agent; read-out: (nM) s.a.
Protocol: as §2

H2030 = assay: Combinatorial activity in LUAD cell line H2030; format: cell-based; conditions: Homo sapiens, NCI-H2030; H2030, KRAS G12C; single agent; read-out: (nM) s.a.
Protocol: as §2

H1373 = assay: Combinatorial activity in LUAD cell line H1373; format: cell-based; conditions: Homo sapiens, NCI-H1373; H1373, KRAS G12C; single agent; read-out: (nM) s.a.
Protocol: as §2

IC50 (A427)	IC50 (A549)	IC50 (CALU6)	IC50 (NCIH2023)	IC50 (NCIH2126)	IC50 (NCIH2228 (RB mut))	IC50 (H23)	IC50 (H358)	IC50 (H2030)	IC50 (H1373)	SMILES	Loewe Volume [1]	Best CI [1]	TGI % [2]	TGI % (ST941 PBR PDX model)	IC50 (NCI-2291)
276 nM	574 nM	268 nM	> 450 nM	372 nM	~1000 nM	–	–	–	–	COCc1cc(C(=O)Nc2cc([C@H]3CC[C@@H](OC(=O)NC(C)C)C3)[nH]n2)n(C)n1 [PF-07104091, (1R,3S)-3-[3-({[3-(methoxymethyl)-1-methyl-1H-pyrazol-5-yl]carbonyl}amino)-1H-pyrazol-5-yl]cyclopentyl propan-2-ylcarbamate]	0.01	0.95	95%	34% and 24^* %	~1200 nM
124 nM	814 nM	155 nM	310 nM	255 nM	839 nM	285 nM	120 nM	950 nM	470 nM	CC(C)n1c(C(C)(C)O)nc2c(F)cc(-c3nc(N[C@@H]4CCOC[C@H]4O)ncc3Cl)cc21 [PF-07220060, 1,5-anhydro-3-({5-chloro-4-[4-fluoro-2-(2-hydroxypropan-2-yl)-1-(propan-2-yl)-1H-benzimidazol-6-yl]pyrimidin-2-yl}amino)-2,3-dideoxy-D-threo-pentitol]	0.00	0.97	89%	28%	138 nM
